In patent US20220323406A1, “METHODS AND COMPOSITIONS FOR DIFFERENTIATING STEM CELLS” (Massachusetts Institute of Technology, priority 2019, published 2022):
Counter-ions that a name gives are not always drawn.

Legend:
[1] = system: ENR+CD organoids (ISC to Paneth cell differentiation); test: Primary screen: basal (non-stimulated) lysozyme secretion LYZ.NS, 2.5-D 384-well ENR+CD organoid differentiation; format: cell-based, mouse; conditions: primary screen; for Z.LYZ.NS: standard z score
Excerpt: (§1) High-throughput screening.

[2] = system: ENR+CD organoids (ISC to Paneth cell differentiation); test: Primary screen: CCh-stimulated lysozyme secretion LYZ.S, 2.5-D 384-well ENR+CD organoid differentiation; format: cell-based, mouse; conditions: primary screen
Excerpt: as §1

ENR+CD organoids = test: Primary screen: ATP (CellTiter-Glo 3D, CTG) cell number/viability, 2.5-D 384-well ENR+CD organoids; conditions: primary screen; for Z.CTG: standard z score;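 as to all read-outs here: compounds given at plating and again on day 3 over a 6-day differentiation from ENR+CV stem-cell-enriched precursors, ATP measured on day 6, plate median as control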
[3] = dose 0.08 uM, FC vs plate median
[4] = dose 0.40 uM, FC vs plate median
[5] = dose 2.00 uM, FC vs plate median
[6] = dose 10.00 uM, FC vs plate median
[7] = dose 0.08 uM, FC relative to plate median
[8] = dose 0.40 uM, FC relative to plate median
[9] = dose 2.00 uM, FC relative to plate median
[10] = dose 10.00 uM, FC relative to plate median

Compound	Z.LYZ.NS ([1]; dose 0.08 uM)	Z.LYZ.NS ([1]; dose 0.40 uM)	Z.LYZ.NS ([1]; dose 2.00 uM)	Z.LYZ.NS ([1]; dose 10.00 uM)	Z.LYZ.NS (standard z score) ([1]; dose 0.08 uM)	Z.LYZ.NS (standard z score) ([1]; dose 0.40 uM)	Z.LYZ.NS (standard z score) ([1]; dose 2.00 uM)	Z.LYZ.NS (standard z score) ([1]; dose 10.00 uM)	Z.CTG (standard z score) (ENR+CD organoids; dose 0.08 uM)	Z.CTG (standard z score) (ENR+CD organoids; dose 2.00 uM)	Z.CTG (standard z score) (ENR+CD organoids; dose 10.00 uM)	Dose.FC.LYZ.NS ([1]; dose 0.08 uM)	Dose.FC.LYZ.NS ([1]; dose 2.00 uM)	Dose.FC.LYZ.NS ([1]; dose 10.00 uM)	Dose.FC.LYZ.S ([2]; dose 0.08 uM)	Dose.FC.LYZ.S ([2]; dose 2.00 uM)	Dose.FC.LYZ.S ([2]; dose 10.00 uM)	Dose.FC.CTG (ENR+CD organoids; dose 0.08 uM)	Dose.FC.CTG (ENR+CD organoids; dose 2.00 uM)	Dose.FC.CTG (ENR+CD organoids; dose 10.00 uM)	other results
O=c1cc(N2CCOCC2)oc2c1ccc1ccccc12 [NU7026]	0.198	0.198	−0.507	−1.380	–	–	–	–	–	–	–	–	–	–	–	–	–	–	–	–	Dose.FC.LYZ.NS [1, 3]: 0.023 log2 fold change; Dose.FC.LYZ.NS [1, 4]: 0.023 log2 fold change; Dose.FC.LYZ.NS [1, 5]: −0.058 log2 fold change; Dose.FC.LYZ.NS [1, 6]: −0.158 log2 fold change; Dose.FC.LYZ.S [2, 3]: 0.021 log2 fold change; Dose.FC.LYZ.S [2, 4]: 0.034 log2 fold change; Dose.FC.LYZ.S [2, 5]: −0.056 log2 fold change; Dose.FC.LYZ.S [2, 6]: −0.198 log2 fold change; Z.CTG (ENR+CD organoids; dose 0.08 uM): 0.230; Z.CTG (ENR+CD organoids; dose 0.40 uM): 0.248; Z.CTG (ENR+CD organoids; dose 2.00 uM): 0.255; Z.CTG (ENR+CD organoids; dose 10.00 uM): −0.284; Dose.FC.CTG (ENR+CD organoids; [3]): 0.096 log2 fold change; Dose.FC.CTG (ENR+CD organoids; [4]): 0.104 log2 fold change; Dose.FC.CTG (ENR+CD organoids; [5]): 0.107 log2 fold change; Dose.FC.CTG (ENR+CD organoids; [6]): −0.119 log2 fold change
CC(C)CCNC(=O)[C@H](CC(C)C)NC(=O)[C@H]1O[C@@H]1C(=O)O [Loxistatin Acid (E-64C)]	–	–	–	–	1.283	0.534	0.482	0.031	0.206	0.191	0.224	–	–	–	–	–	–	–	–	–	Dose.FC.LYZ.NS (log2 fold change) ([1]; dose 0.08 uM): 0.147; Dose.FC.LYZ.NS (log2 fold change) ([1]; dose 0.40 uM): 0.061; Dose.FC.LYZ.NS (log2 fold change) ([1]; dose 2.00 uM): 0.055; Dose.FC.LYZ.NS (log2 fold change) ([1]; dose 10.00 uM): 0.004; Dose.FC.LYZ.S (log2 fold change) ([2]; dose 0.08 uM): 0.125; Dose.FC.LYZ.S (log2 fold change) ([2]; dose 0.40 uM): 0.105; Dose.FC.LYZ.S (log2 fold change) ([2]; dose 2.00 uM): 0.037; Dose.FC.LYZ.S (log2 fold change) ([2]; dose 10.00 uM): 0.021; Dose.FC.CTG (log2 fold change) (ENR+CD organoids; dose 0.08 uM): 0.086; Dose.FC.CTG (log2 fold change) (ENR+CD organoids; dose 0.40 uM): 0.156; Z.CTG (standard z score) (ENR+CD organoids; dose 0.40 uM): 0.373; Dose.FC.CTG (log2 fold change) (ENR+CD organoids; dose 2.00 uM): 0.080; Dose.FC.CTG (log2 fold change) (ENR+CD organoids; dose 10.00 uM): 0.094
CC(C)OC(=O)OCOP(=O)(CO[C@H](C)Cn1cnc2c(N)ncnc21)OCOC(=O)OC(C)C [Tenofovir Disoproxil Fumarate]	–	–	–	–	0.475	−0.442	−0.689	−1.614	–	–	–	0.055 log2 fold change	−0.079 log2 fold change	−0.185 log2 fold change	0.208 log2 fold change	−0.065 log2 fold change	−0.267 log2 fold change	0.072 log2 fold change	−0.158 log2 fold change	−0.433 log2 fold change	Dose.FC.LYZ.NS ([1]; dose 0.40 uM): −0.051 log2 fold change; Dose.FC.LYZ.S ([2]; dose 0.40 uM): 0.086 log2 fold change; Dose.FC.CTG (ENR+CD organoids; dose 0.40 uM): −0.002 log2 fold change
CN1CCN(c2nc(C3=C(c4c[nH]c5ccccc45)C(=O)NC3=O)c3ccccc3n2)CC1 [Sotrastaurin]	1.678	−0.567	0.125	−1.101	–	–	–	–	–	–	–	–	–	–	–	–	–	–	–	–	Dose.FC.LYZ.NS [1, 7]: 0.193 log2 fold change; Dose.FC.LYZ.NS [1, 8]: −0.065 log2 fold change; Dose.FC.LYZ.NS [1, 9]: 0.014 log2 fold change; Dose.FC.LYZ.NS [1, 10]: −0.126 log2 fold change; Dose.FC.LYZ.S [2, 7]: 0.097 log2 fold change; Dose.FC.LYZ.S [2, 8]: −0.043 log2 fold change; Dose.FC.LYZ.S [2, 9]: −0.085 log2 fold change; Dose.FC.LYZ.S [2, 10]: −0.164 log2 fold change; Dose.FC.CTG (ENR+CD organoids; [7]): 0.010 log2 fold change; Dose.FC.CTG (ENR+CD organoids; [8]): −0.120 log2 fold change; Dose.FC.CTG (ENR+CD organoids; [9]): −0.272 log2 fold change; Dose.FC.CTG (ENR+CD organoids; [10]): −0.242 log2 fold change
COc1ccnc2[nH]cc(C(=O)C(=O)N3CCN(C(=O)c4ccccc4)C[C@H]3C)c12 [BMS-378806]	–	–	–	–	1.231	–	−0.870	−1.977	0.557	−0.691	−2.758	0.141 log2 fold change	−0.100 log2 fold change	−0.227 log2 fold change	0.159 log2 fold change	−0.142 log2 fold change	−0.322 log2 fold change	0.233 log2 fold change	−0.289 log2 fold change	−1.155 log2 fold change	–
CN(C)CCCCC(=O)Nc1ccc(NC(=S)NC(=O)c2ccc(C(C)(C)C)cc2)cc1 [Tenovin-6]	–	–	–	–	1.050	−0.463	−1.686	−1.671	0.165	−2.654	−3.414	0.121 log2 fold change	−0.194 log2 fold change	−0.192 log2 fold change	0.028 log2 fold change	−0.328 log2 fold change	−0.344 log2 fold change	0.069 log2 fold change	−1.111 log2 fold change	−1.429 log2 fold change	Dose.FC.LYZ.NS ([1]; dose 0.40 uM): −0.053 log2 fold change; Dose.FC.LYZ.S ([2]; dose 0.40 uM): −0.109 log2 fold change; Dose.FC.CTG (ENR+CD organoids; dose 0.40 uM): −0.506 log2 fold change; Z.CTG (standard z score) (ENR+CD organoids; dose 0.40 uM): −1.209
